One data set concerns MDA-MB-231. Briefly: WST-1 proliferation assay, MDA-MB-231. Type of data set: cell-based, Human. Conditions: for IC50: Homo sapiens, Breast MDA-MB-231, 72 h, read-out: Anti-proliferative activity IC50 (μM) ± SD; for effect on anti-proliferative effect of 5-FU: MDA-MB-231, combination with 5-FU, 72 hours (FIG. 7); for cytotoxicity for cancer cells in vitro: MDAMB-231 cell survival, FIGS. 1A-C. On the procedure: (§1) Cells were grown as subconfluent monolayer and cultured in 75 cm^2 flasks at 37° C., 5% CO2 in a humidified atmosphere, and medium was changed every two days. Only cells from passages 2-6 were used for the experiments.
All cells were detached with 3 ml of trypsin/EDTA (chelator of calcium and magnesium ions) (Lonza), incubated for 5 min at 37° C., and examined using a microscope to ensure that the cells were detached and floating. […] The supernatant was removed and the cell pellet resuspended in […] of culture medium. 50 μl of this solution were transferred in 20 μl of isotonic solution and the cells were counted by count cellular (Beckman Coulter).
(§2) The cell proliferation WST-1 assay is a colorimetric assay for the quantification of cell proliferation and viability, based on the enzymatic cleavage of the tetrazolium salt WST-1 added to the culture medium, to a water soluble colored formazan dye, detected by absorbance at 450 nm, by mitochondrial succinate-tetrazolium reductase in viable cells. An augmentation in enzyme activity will then lead to an increase in the amount of formazan dye formed, which directly correlates to the number of metabolically active cells in the culture.
After an incubation period of 72 h, at day 4, were prepared the […] medium with reagent WST-1 […] ([…]). The medium was removed from the 96 microplate and 200 μl of solution WST-1/medium were added for each well. The cells were incubated at 37° C. in a humidified atmosphere of 5% CO2 for 1 h 30 and the absorbance at 450-655 nm was measured by Microplate Manager 5.2 (Bio-Rad).
In general terms: Tetrazolium dyes change colour on reduction, which living cells bring about.

The next data set has as its system HeLa. Briefly: WST-1 proliferation assay, HeLa. Format: cell-based. Conditions: Homo sapiens; for IC50: Cervical HeLa, 72 h, read-out: Anti-proliferative activity IC50 (μM) ± SD; for inhibition at 0.1 µM / inhibition at 0.5 µM / inhibition at 1 µM: HeLa.
From the text: (§3) Several cancer cell lines were used: breast cancer cells (MDA-MB-231 (ATTCC® Number HTB-26™), MDA-MB-436 (ATTCC® Number HTB-130™), MDA-MB-438, BT-474 (ATTCC® Number HTB-20™)); cervical cancer cells (HeLa (ATTCC® Number CCL-2™)); colon cancer cells (HCT-116 (ATTCC® Number CCL-247™) and HT-29 (ATTCC® Number HTB-38™)); osteosarcoma cells (U2OS (ATTCC® Number HTB-96™)); pancreas cancer cells (MIA PaCa-2 (ATTCC® Number CRL-1420™) and Panc-10.5 (ATTCC® Number CRL-2547™)); prostate cancer cells (PC-3 (ATTCC® Number CRL-1435™) and LNCaP (ATTCC® Number CRL-1740™)); brain cancer cells (U87 glioblastoma (ATTCC® Number HTB-14™) and SH-SYSY neuroblastoma (ATTCC® Number CRL-2266™)).
(§4) All the cancer cell lines were maintained in cultured in DMEM GlutaMAX™ (GIBCO Invitrogen, France, cat no 31966047) enhanced with 10% foetal bovine serum (GIBCO Invitrogen, France, cat no 10270-106) and 1% penicillin G/streptomycin (GIBCO Invitrogen, France, cat no 15140-122). Only Panc-10.5 cells were cultivated in RPMI 1640 medium (Gibco) supplemented with 2 mM L-glutamine, 1.5 g/L sodium bicarbonate, 4.5 g/L glucose, 10 mM HEPES, 1 mM sodium pyruvate, 10 Units/ml human insulin, […] (SVF): 15% (75 ml in 500 ml of medium).
as §1
After observation of cells under the microscope, old media were removed and the adherent cells washed gently twice with PBS (Phosphate Buffer Saline, —Ca^2+, —Mg^2+, Lonza cat no: 17-512F/12). All cells were detached with 3 ml of trypsin/EDTA (chelator of calcium and magnesium ions) (Lonza), incubated for 5 min at 37° C., and examined using a microscope to ensure that the cells were detached and floating. Then, 3 ml TNS (Trypsin Neutralizing Solution, Lonza, France, cat no CC-5002) or of culture medium were added to inactivate the trypsin, and the cell suspension was transferred in a falcon and centrifuged for 7 min at 1400 rpm. The supernatant was removed and the cell pellet resuspended in […] of culture medium. 50 μl of this solution were transferred in 20 μl of isotonic solution and the cells were counted by count cellular (Beckman Coulter). At day 0, 200 μl of cellular suspension (3.10^3 cells/well for the HUVEC cells, breast cancer cells (MDA-MB-231 1.10^4 cells/well, MDA-MB-436 1.10^4 cells/well, MDA-MB-438 2.10^4 cells/well, BT-474 2.5.10^4 cells/well); cervical cancer cells (HeLa 5.000 cells/well); colon cancer cells (HCT-116 5.10^3 cells/well, HCT-29 1.1.10^4 cells/well); osteosarcoma cells (U2OS 8.10^3 cells/well); pancreas cancer cells (MIA PaCa-2 5.10^3 cells/well, Panc-10.5 1.5.10^4 cells/well); prostate cancer cells (PC-3 4.10^3 cells/well, LNCaP 2.10^4 cells/well); brain cancer cells (U87 5.10^3 cells/well, SH-SYSY 8.10^4 cells/well)) were then plated on 96 well plates and incubated at 37° C. in a humidified atmosphere of 5% CO2 for 24 h.
At day 1, the compounds 1 or 2 of the invention were added at increasing concentrations (0.1-10 μM) in the wells and plates were incubated at 37° C. in a humidified atmosphere of 5% CO2 for 72 h.
as §2
After an incubation period of 72 h, at day 4, were prepared the 19 ml medium with reagent WST-1 1 ml ([…]). The medium was removed from the 96 microplate and 200 μl of solution WST-1/medium were added for each well. […]

The test system of the next data set is HCT-29. Briefly: WST-1 proliferation assay, HCT-29. Format: cell-based. Conditions: Homo sapiens; Colon HCT-29, 72 h; read-out: Anti-proliferative activity IC50 (μM) ± SD.
From the text: as §3, with “CRL-2266™)). […]” for “CRL-2266™)).”
(§5) After observation of cells under the microscope, old media were removed and the adherent cells washed gently twice with PBS (Phosphate Buffer Saline, —Ca^2+, —Mg^2+, Lonza cat no: 17-512F/12). […] 50 μl of this solution were transferred in 20 μl of isotonic solution and the cells were counted by count cellular (Beckman Coulter). […]
(§6) The cell proliferation WST-1 assay is a colorimetric assay for the quantification of cell proliferation and viability, based on the enzymatic cleavage of the tetrazolium salt WST-1 added to the culture medium, to a water soluble colored formazan dye, detected by absorbance at 450 nm, by mitochondrial succinate-tetrazolium reductase in viable cells. […]

In the next data set the test system is NCI-H460. The data set is described as follows: WST-1 proliferation assay, NCI-H460. Type of data set: cell-based. Conditions: Homo sapiens; Lung NCI-H460; read-out: Anti-proliferative activity IC50 (μM) ± SD. On the procedure:
as §4
(§7) Cells were grown as subconfluent monolayer and cultured in 75 cm^2 flasks at 37° C., 5% CO2 in a humidified atmosphere, and medium was changed every two days. […]
as §6
(§8) After an incubation period of 72 h, at day 4, were prepared the 19 ml medium with reagent WST-1 1 ml ([…]). […] The cells were incubated at 37° C. in a humidified atmosphere of 5% CO2 for 1 h 30 and the absorbance at 450-655 nm was measured by Microplate Manager 5.2 (Bio-Rad).

The subject of another data set is MIA PaCa-2. Briefly: WST-1 proliferation assay, MIA PaCa-2. Format: cell-based. Conditions: Homo sapiens; Pancreas MIA PaCa-2, 72 h; read-out: Anti-proliferative activity IC50 (μM) ± SD.
From the text: as §3, with “CRL-2266™)). […]” for “CRL-2266™)).”
as §5, §6

The subject of the next data set is VAL. Briefly: WST-1 proliferation assay, VAL. Format: cell-based. Conditions: Homo sapiens; B lymphoma VAL; read-out: Anti-proliferative activity IC50 (μM) ± SD. On the procedure: as §4, §7, §6, §8
In another data set the test system is U2OS. Briefly: WST-1 proliferation assay, U2OS. Type of data set: cell-based. Conditions: Homo sapiens.
In the next data set the test system is Panc-10.5. The data set is described as follows: WST-1 proliferation assay, Panc-10.5. Type of data set: cell-based. Conditions: Homo sapiens; PANC - 10.5, 0.05 μM.

Take `Cc1ccc(-c2nc3ccccc3[nH]2)cc1NC(=S)NC(=O)c1ccc2c(c1)OCCO2` [Compound 1, N-[5-(1H-benzimidazol-2-yl)-2-methylphenyl]-N′-(2,3-dihydro-1,4-benzodioxin-6-ylcarbonyl)thiourea]: the IC50 (commonly the midpoint of a concentration-inhibition curve) with MDA-MB-231 worked out at 0.6 ± 0.03 µM; in the data set with HeLa, 0.4 ± 0.04 µM; in the data set with HCT-29, 0.5 ± 0.05 µM; with NCI-H460, 0.5 ± 0.09 µM; in the data set with MIA PaCa-2, 1 µM; in the data set on VAL, 1.8 ± 0.04 µM. The “effect on anti-proliferative effect of 5-FU” value in the data set with MDA-MB-231 was “increase the anti-proliferative effect of 5-FU”. In addition, in the data set with MDA-MB-231, the “cytotoxicity for cancer cells in vitro” value is “cytotoxic”. In addition, the inhibition (commonly the drop in the measured response relative to a control, in per cent) at 0.1 µM with HeLa came out at 13%. In the data set on HeLa, this molecule had an inhibition at 0.5 µM of 64%. The molecule further registered an inhibition at 1 µM in the data set on HeLa of 68%. For the same molecule, the inhibition at 0.05 µM in the data set on U2OS was 9%; with Panc-10.5, 18%.

For the molecule `O=C(NC(=S)Nc1cccc(-c2nc3ccccc3[nH]2)c1)c1ccc2c(c1)OCCO2` [Compound 2, N-[3-(1H-benzimidazol-2-yl)phenyl]-N′-(2,3-dihydro-1,4-benzodioxin-6-ylcarbonyl)thiourea], the IC50 in the data set on MDA-MB-231 was 0.4 ± 0.02 µM; in the data set with HeLa it was 0.05 ± 0.04 µM; in the data set with HCT-29 it was 0.1 ± 0.01 µM; in the data set with NCI-H460 it was 0.3 ± 0.04 µM; with MIA PaCa-2, 1 µM; in the data set on VAL, 1 µM. In addition, the “effect on anti-proliferative effect of 5-FU” value in the data set on MDA-MB-231 is recorded as “increase the anti-proliferative effect of 5-FU”. In addition, the “cytotoxicity for cancer cells in vitro” value with MDA-MB-231 was “cytotoxic”. For the same molecule, 0.1 µM produced 62% inhibition with HeLa. Moreover, the inhibition at 0.5 µM with HeLa is 64%. For the same molecule, the inhibition at 1 µM with HeLa came out at 67%. The inhibition at 0.05 µM in the data set on U2OS turned out to be 18%; with Panc-10.5, 35%.

The values above are taken from US20130041005A1, “PHARMACEUTICAL COMPOSITIONS COMPRISING NEUROPILIN INHIBITORS, AND THEIR USE FOR THE PREVENTION AND/OR TREATMENT OF ANGIOGENIC DISORDERS AND CANCERS” (TRAGEX PHARMA, priority 2011, published 2013).
